Patent US20240018470A1, “METHOD OF MANIPULATING PLURIPOTENCY IN CELLS” (YALE UNIVERSITY, priority 2022, published 2024)
No end group written: not given here.

What was measured:
Xenopus embryos [1] = experiment: Gastrulation scoring (incomplete blastopore closure) in treated or kcnh6-depleted embryos; type: in vivo, Xenopus tropicalis; settings: blastula/gastrula embryos treated stage 8 to stage 12, 50 nM
Experimental: All injections of Xenopus embryos were performed at the one-cell stage using a fine glass needle and Picospritzer system. A kcnh6 translation blocking (kcnh6 MO, 5′-[…]-3′, SEQ ID NO:1) and a scrambled morpholino oligonucleotide were obtained from Gene Tools LLC and injected at 10 ng to deplete kcnh6 or as a control, respectively. CRISPR sgRNAs for kcnh6 targeted either exon 3 or exon 4 based on the v7.1 gene model of the X. tropicalis genome (CRex3: 5′-[…]-3′, SEQ ID NO:2 and CRex4: 5′-[…]-3′, SEQ ID NO:3). CRISPR sgRNAs for cacna1c (5′-[…]-3′, SEQ ID NO:4) and cacna1g (5′-[…]-3′, SEQ ID NO:5) were designed from the v7.1 model of the Xenopus tropicalis genome. For F0 CRISPR knockdown, embryos were injected with 1.5 ng Cas9 Protein (PNA-Bio) and 400 pg of targeting sgRNA and raised to desired stages. […] Full length human KCNH6 (NM 030779.3; cloned in pCS107), GCaMP6 (subcloned in pCSDest) and mCherry cDNAs (Addgene #34935; in pCS2+), were used to generate capped mRNAs in vitro by first linearizing with appropriate restriction enzymes and then transcribing with the mMessage machine kit (Ambion). mRNAs were injected at 3 pg (human KCNH6), 150 pg (GCaMP6) and 150 pg (mCherry) per embryo. Embryos were raised at 21° C. to allow time for sufficient expression levels at blastula/gastrula stages.
(§1) Normal embryonic medium is 1/9× modified Ringer's (MR) containing 11 mM NaCl, 0.2 mM KCl, 0.2 mM CaCl2), 0.1 mM Mg2Cl and 0.55 mM HEPES. To allow Ergtoxin to penetrate the embryos, the present study manually removed the vitelline envelope of stage 8 embryos and incubated embryos in 1/9×MR containing 50 nM Ergtoxin (Alomone STE-450) until stage 12. Embryos were then transferred back into 1/9×MR lacking Ergtoxin to develop until stage 45 in order to score organ situs. Barium chloride was applied into the medium at 20 mM and embryos were thoroughly rinsed in 1/9×MR after each incubation period for further development in Ba2+-free medium. For extracellular K^+ manipulations, the KCl concentration in 1/9×MR was modified from 0.2 mM (normal) to 20 mM (high) or 0 mM (low). The ionophore valinomycin (ACROS) and L-type VGCC blocker Nifedipine (ACROS) were diluted in DMSO as stock solutions and applied to embryos in 1/9×MR at 2 nM and 10 μM respectively. Treatments performed during gastrulation were applied from stage 8 through stage 12, and embryos were then rinsed thoroughly and returned into 1/9×MR. For rapamycin, the present study created a standard stock solution of 50 mg/ml in DMSO. The stock solution was diluted 1:2500 in the appropriate embryonic media (final 20 μg/ml). Embryos were treated at stage 7 and then fixed at stage 11 for in situ hybridization.
(§2) In experiments where embryos were evaluated for phenotypes and scored (gastrulation, left-right patterning, in situ hybridizations) the present study carried out three to five biological replicates and Fisher's exact test to evaluate statistical significance. The animal cap experiment was performed twice with a total score of four to eight animal caps per experiment. For the calcium transient analyses, data was collected from three to five embryos in each experiment in three independent experiments, and statistical analyses on GCaMP/mCherry fluorescence intensity as well as Ca^2+ transient area were performed using student's t-test. For whole cell electrophysiological recordings, three to five embryos (two cells each) were examined for their membrane potential and statistical significance was tested by student's t-test. Graphs were designed using GraphPad Prism software. Models were created with BioRender.com.

hESCs [2] = experiment: hESC BMP4-induced differentiation, pluripotency marker immunofluorescence; type: cell-based, human; settings: BMP4 50 ng/ml, at 12 hours; similar trend in NANOG
Experimental: (§3) Cells were dissociated with accutase and seeded onto 8 well imaging slides (ibidi 80826) at a density of 4-6×10^4/cm^2. Cells were seeded and maintained in Rock-inhibitor Y27672 (MCE; 10 μM) to increase survival and the uniformity of response. Treatments with 1 mM BaCl2 or 10 or 25 nM Ergtoxin or 100 nM rapamycin were initiated 4 hours after seeding. Differentiation was initiated 24 hours after seeding where indicated. To initiate differentiation, the media was replenished with/without BaCl2 or Ergtoxin and treated with the indicated growth factors or small molecules. Cells were incubated for the indicated times without media change before fixation.
Cells were fixed for 30 min in 4% paraformaldehyde, rinsed twice with DPBS (without Ca^2+ and Mg^2+, denoted DPBS^−/−), and blocked for 30 min at room temperature. The blocking solution contained 3% donkey serum and 0.1% Triton X-100 in 1×DPBS^−/−. After blocking, the cells were incubated with primary antibodies at room temperature for 2 hours. Antibodies and concentrations are listed below. […]
Images were acquired using a 20×, NA 0.75 objective on an Olympus IX83 inverted epifluorescence microscope or an Olympus/Andor spinning disk confocal microscope. […] This segmentation was cleaned (to remove debris and to separate merged cells) and mean nuclear protein intensities as well as standard errors were quantified using a custom MATLAB code. […]

hESCs [3] = experiment: hESC pluripotency marker immunofluorescence; type: cell-based, human
Experimental: hESCs were grown in mTeSR1 ([…] Technologies) in tissue culture dishes coated with Matrigel (Corning; 1:200 in DMEM/F12) and kept at 37° C., 5% CO2. The cell lines used were ESI017 (ESIBIO) and H9.
as §3
Cells were fixed for 30 min in 4% paraformaldehyde, rinsed twice with DPBS (without Ca^2+ and Mg^2+, denoted DPBS^−/−), and blocked for 30 min at room temperature. The blocking solution contained 3% donkey serum and 0.1% Triton X-100 in 1×DPBS^−/−. After blocking, the cells were incubated with primary antibodies at room temperature for 2 hours. Antibodies and concentrations are listed below. Cells were washed three times with DPBST (1×DPBS^−/− with Tween 20) and incubated with secondary antibodies (AlexaFluor 488 A21206, AlexaFluor 555 A31570 and A21432, and AlexaFluor 647 A31571, Thermo Fisher; 1:500) and DAPI for 30 min at room temperature. After secondary antibody incubation, samples were washed in DPBST and then DPBS at room temperature.
Images were acquired using a 20×, NA 0.75 objective on an Olympus IX83 inverted epifluorescence microscope or an Olympus/Andor spinning disk confocal microscope. Cell segmentation was performed using ilastik software. This segmentation was cleaned (to remove debris and to separate merged cells) and mean nuclear protein intensities as well as standard errors were quantified using a custom MATLAB code. Nuclear intensities were normalized by DAPI to correct for intensity variation due to optics. […]

hESCs [4] = experiment: hESC pluripotency marker qPCR; type: cell-based, human; settings: 25 nM; OCT4 and SOX2 by day 2, all three genes on day 5
Experimental: hESCs were grown in mTeSR1 (STEMCELL Technologies) in tissue culture dishes coated with Matrigel (Corning; 1:200 in DMEM/F12) and kept at 37° C., 5% CO2. The cell lines used were ESI017 (ESIBIO) and H9. Cells were routinely passaged using dispase (STEMCELL Technologies) and tested for mycoplasma contamination and found negative. For rapamycin experiments, cells were grown in MEF-conditioned HUESM media supplemented with 20 ng/ml bFGF with or without 100 nM rapamycin, which the present study found to increase the survival of rapamycin treated cells compared to cells grown in mTeSR1.
For qPCR, hESCs were grown with or without ErgToxin (25 nM) for the indicated times. RNA collection and DNase treatment were performed using the RNAqueous®-Micro Total RNA Isolation Kit (AM1931) and cDNA was synthesized with the SuperScript Vilo cDNA Synthesis Kit (Fisher Scientific 11754-050). qPCR measurements were collected using SYBR Green reagent (LifeTech-4367659) on a Step OnePlus instrument (Applied Biosciences). Data were normalized using the housekeeping gene GAPDH. Primers for qPCR were: OCT4: 5′-[…]-3′ (SEQ ID NO:12), 5′-[…]-3′ (SEQ ID NO:13), SOX2: 5′-[…]-3′ (SEQ ID NO:14), 5′-[…]-3′ (SEQ ID NO:15), NANOG: 5′-[…]-3′ (SEQ ID NO:16), 5′-[…]-3′ (SEQ ID NO:17), GAPDH: 5′-[…]-3′ (SEQ ID NO:18), 5′-[…]-3′ (SEQ ID NO:19).

Xenopus embryos [5] = experiment: Organ situs (left-right patterning) scoring in stage 45 tadpoles; type: in vivo, Xenopus tropicalis; settings: blastula/gastrula embryos treated stage 8 to stage 12, 50 nM
Experimental: Stage 45 Xenopus embryos were paralyzed with benzocaine or tricaine and scored with a light stereomicroscope. Cardiac looping was determined by position of the outflow tract; D-loop: rightward, L-loop: leftward; A-loop: midline. Normal intestinal looping was scored as counter-clockwise rotation of the gut, while abnormal intestinal looping was scored as completely inverse gut rotation (clockwise) or complete lack of looping (un-looped). While a completely inverted gut rotation is clearly an abnormality of LR patterning, an unlooped gut is less clear so the present study only considered an unlooped gut as abnormal situs when combined with abnormal placement (left-sided or midline) of the gall bladder. To quantify total abnormal organ situs, each tadpole was counted only once, regardless of whether multiple organs were affected.
as §1, §2

“Ergtoxin: a scorpion peptide that specifically acts as a pore blocker of the KCNH channel family (Alomone STE-450) (DRDSCVDKSRCAKYGYYQECQDCCKNAGHNGGTCMFFKCKCA; ends and bridges not checked; cysteine pairing not given here; UniProt Q86QT3 21-62, looked up)” was tested, and the gastrulation defects (Xenopus embryos [1]) was “identical gastrulation and LR defects”, the “downregulation of pluripotency markers such as SOX2” value (hESCs [2]) was “significant delay” and the “effect on pluripotency markers in the presence of rapamycin” value (hESCs [3]; 25 nM Ergtoxin with 100 nM rapamycin) was “no effect”. The “pluripotency markers OCT4 and SOX2” value (hESCs [3]; hESCs grown for two days, 25 nM Ergtoxin or 1 mM Barium, immunostaining and qPCR) was “modest but significant elevation”, the “OCT4, SOX2 and NANOG transcript level” value (hESCs [4]) was “upregulation of these genes at the transcript level” and the LR defects (Xenopus embryos [5]) was “identical gastrulation and LR defects”.
